According to patent publication US6750244B2, “Compounds active at a novel site on receptor-operated calcium channels useful for treatment of neurological disorders and diseases” (NPS Pharmaceuticals, Inc., priority 1993, dated 2004):

What was measured:
NMDA receptor = test: Inhibition of NMDA/glycine-induced increases in intracellular calcium in cultured rat cerebellar granule cells (RCGC); type: cell-based; conditions: NMDA/glycine-induced increases in intracellular calcium, cultured rat cerebellar granule cells; read-out: IC50 (μM) vs. NMDA
[1] = biological target: NMDA receptor-ionophore complex (site labeled by [3H]MK-801); test: Inhibition of [3H]MK-801 binding in rat cortical/hippocampal washed membrane preparations; conditions: read-out: IC50 (μM) vs. [3H]MK-801; rat cortical/hippocampal washed membranes

Structure (SMILES)	IC50 (NMDA receptor) [µM]	IC50 [1] [µM]
NCCC(c1ccccc1)c1cccc(F)c1 (stereo not drawn) [Compound 32, 3-(3-fluorophenyl)-3-phenyl-1-propylamine]	0.284	0.799
CCC(CCN)c1cccc(F)c1 (stereo not drawn) [Compound 35]	6.2	25.1
CC(C)C(CCN)c1cccc(F)c1 (stereo not drawn) [Compound 37]	0.944	11.1
CC(N)C(C)C(c1cccc(F)c1)c1cccc(F)c1 (stereo not drawn) [Compound 38, 3,3-bis(3-fluorophenyl)-1,2-dimethyl-1-propylamine]	0.407	2.3
CCNC[C@H](C)C(c1cccc(F)c1)c1cccc(F)c1 [Compound 39]	0.251	2.9
CC(C)(CN)C(c1cccc(F)c1)c1cccc(F)c1 [Compound 41, 3,3-bis(3-fluorophenyl)-2,2-dimethyl-1-propylamine]	0.724	14
CC(N)CC(c1cccc(Cl)c1)c1cccc(Cl)c1 (stereo not drawn) [Compound 43]	0.232	7.5
NCCC(c1cccc(F)c1)c1ccccc1F (stereo not drawn) [Compound 52, 3-(2-fluorophenyl)-3-(3-fluorophenyl)-1-propylamine]	0.102	0.38
NCCC(c1ccccc1F)c1ccccc1F [Compound 53, 3,3-bis(2-fluorophenyl)-1-propylamine]	0.217	4.2
CCC(CN)C(c1cccc(F)c1)c1cccc(F)c1 (stereo not drawn) [Compound 55, 3,3-bis(3-fluorophenyl)-2-ethyl-1-propylamine]	0.035	0.153
Cc1c(F)cccc1C(CCN)c1cccc(F)c1 (stereo not drawn) [Compound 56, 3-(3-fluorophenyl)-3-(2-methyl-3-fluorophenyl)-1-propylamine]	0.218	0.955
COc1ccc(F)cc1C(CCN)c1cccc(F)c1 (stereo not drawn) [Compound 61, 3-(3-fluorophenyl)-3-(3-fluoro-6-methoxyphenyl)-1-propylamine]	0.134	0.324
COc1ccccc1C(CCN)c1ccccc1OC [Compound 62, 3,3-bis(2-methoxyphenyl)-1-propylamine]	0.177	0.617
Cc1ccccc1C(CCN)c1ccccc1C [Compound 65, 3,3-bis(2-methylphenyl)-1-propylamine]	0.167	2
CNC[C@H](C)C(c1cccc(F)c1)c1cccc(F)c1 [Compound 66]	0.236	1.2
CNCCC(c1ccccc1)c1ccccc1 [Compound 67, N-methyl-3,3-diphenylpropylamine]	11	2.9
CN[C@@H](C)CC(c1cccc(F)c1)c1cccc(F)c1 [Compound 69]	0.224	0.366
NCCC(c1ccncc1)c1cccc(F)c1 (stereo not drawn) [Compound 79]	12.6	10.2

Structure (SMILES)	IC50 (NMDA receptor) [µM]	IC50 [1] [µM]
CCC(CC)(CN)C(c1cccc(F)c1)c1cccc(F)c1 [Compound 80, 3,3-bis(3-fluorophenyl)-2,2-diethyl-1-propylamine]	28	182
NCC=C(c1ccccc1)c1ccccc1 [Compound 81, 3,3-diphenyl-prop-2-ene-1-amine]	1.4	6.1
CCC(CCN)(c1cccc(F)c1)c1cccc(F)c1 [Compound 82, 3,3-bis(3-fluorophenyl)-3-ethyl-1-propylamine]	0.106	0.794
NCCC(c1cccc(F)c1)c1cccs1 (stereo not drawn) [Compound 83]	0.342	0.794
OC1(C(c2cccc(F)c2)c2cccc(F)c2)CCNC1 (stereo not drawn) [Compound 84]	7.9	23.4
C[C@H](C(c1ccccc1)c1ccccc1)[C@@H](C)N [Compound 86]	1.2	6
C[C@H](N)[C@H](C)C(c1ccccc1)c1ccccc1 [Compound 87]	0.657	3
NCCOC(c1ccccc1)c1ccccc1 [Compound 88]	2.5	10.6
N=C(N)CC(c1cccc(F)c1)c1cccc(F)c1 [Compound 89]	0.24	1.2
NCCC(c1ccsc1)c1cccc(F)c1 (stereo not drawn) [Compound 90]	0.27	1.4
CCC(NCCC(c1ccccc1)c1ccccc1)c1ccccc1 (stereo not drawn) [Compound 91]	0.162	14.1
Fc1cccc(C(CCNCc2ccccc2)c2cccc(F)c2)c1 [Compound 92]	1.3	20.2
CC(NCCC(c1cccc(F)c1)c1cccc(F)c1)c1ccccc1 (stereo not drawn) [Compound 93]	0.486	26.9
CCC(NCCC(c1cccc(F)c1)c1cccc(F)c1)c1ccccc1 (stereo not drawn) [Compound 94]	0.248	22.6
NCCC(c1cc(F)cc(F)c1)c1cc(F)cc(F)c1 [Compound 95, 3,3-bis(3,5,difluorophenyl)-1-propylamine]	0.311	3
NCCC(c1cccc(F)c1)c1cc(F)cc(F)c1 (stereo not drawn) [Compound 96, 3-(3,5-difluorophenyl)-3-(3-fluorophenyl)-1-propylamine]	0.187	1.1
COc1ccccc1C(CCN)c1ccccc1 (stereo not drawn) [Compound 97, 3-(2-methoxyphenyl)-3-phenyl-1-propylamine]	0.41	2.6
NCC(c1cccc(F)c1)c1cccc(F)c1 [Compound 98, 2,2-bis(3-fluorophenyl)-1-ethylamine]	7.9	52.5
